Reference: patent publication US20100029702A1, “Method For Identification of Compound Having Anti-Anxiety Effect” (priority 2006, published 2010)

Tests used:
[1] = test system: variant 3; assay: Changes in intracellular Ca2+ concentration in variant 3 gene stably-expressing strain; format: cell-based, human; conditions: variant3/CHO#14-18; A23187 20 μM, positive control
Procedure: (§1) Strains stably expressing splicing variants of the variant 3 gene were prepared by a method similar to the above-mentioned method using a variant 3 gene-expressing vector.
(§2) To analyze functions of the variant 3 gene, changes in the intracellular calcium (Ca^2+) concentration induced by CCK-8S were examined using a strain stably expressing the variant 3 gene prepared in Example 7. Changes in the intracellular calcium (Ca^2+) concentration were measured by a method similar to the method described in Example 5.
(§3) Cells were seeded in a 96-well plate (a plate with a black wall and a transparent bottom) at a cell count of 3×10^4/100 μL of medium/well and cultured overnight at 37° C. in a 5% CO2 incubator. On the following day, 50 μL of the medium was removed from each well, 50 μL of a loading buffer was added to each well, the mixture was reacted at room temperature for 1 h, so that a fluorescent dye contained in the loading buffer was taken up into the cell. The loading buffer was prepared by a method similar to the method described in Example 5. After reaction, changes over time in the fluorescence intensity after addition of CCK-8S in each well were measured using the FLEX station (Molecular Device) for 40 sec. CCK-8S was used at a final concentration of 10 pM to 1 μM. Furthermore, as a positive control of the assay, A23187 was used at a final concentration of 20 μM.

[2] = target: T1, variant 3 (Homo sapiens, UniProt O60241, DEL364-418); assay: as above; format: cell-based; conditions: variant 3 stably-expressing strain; CCK-8S 10 pM to 1 μM, figure at 1 nM
T1 construct: a vector expressing each full-length cDNA clone was constructed; expressed in transfected cells; host or cells: CHO-K1 (variant3/CHO#14-18), variant3/pcDNA3.1
T1 sequence (O60241 with tags, fused parts or gaps DEL364-418): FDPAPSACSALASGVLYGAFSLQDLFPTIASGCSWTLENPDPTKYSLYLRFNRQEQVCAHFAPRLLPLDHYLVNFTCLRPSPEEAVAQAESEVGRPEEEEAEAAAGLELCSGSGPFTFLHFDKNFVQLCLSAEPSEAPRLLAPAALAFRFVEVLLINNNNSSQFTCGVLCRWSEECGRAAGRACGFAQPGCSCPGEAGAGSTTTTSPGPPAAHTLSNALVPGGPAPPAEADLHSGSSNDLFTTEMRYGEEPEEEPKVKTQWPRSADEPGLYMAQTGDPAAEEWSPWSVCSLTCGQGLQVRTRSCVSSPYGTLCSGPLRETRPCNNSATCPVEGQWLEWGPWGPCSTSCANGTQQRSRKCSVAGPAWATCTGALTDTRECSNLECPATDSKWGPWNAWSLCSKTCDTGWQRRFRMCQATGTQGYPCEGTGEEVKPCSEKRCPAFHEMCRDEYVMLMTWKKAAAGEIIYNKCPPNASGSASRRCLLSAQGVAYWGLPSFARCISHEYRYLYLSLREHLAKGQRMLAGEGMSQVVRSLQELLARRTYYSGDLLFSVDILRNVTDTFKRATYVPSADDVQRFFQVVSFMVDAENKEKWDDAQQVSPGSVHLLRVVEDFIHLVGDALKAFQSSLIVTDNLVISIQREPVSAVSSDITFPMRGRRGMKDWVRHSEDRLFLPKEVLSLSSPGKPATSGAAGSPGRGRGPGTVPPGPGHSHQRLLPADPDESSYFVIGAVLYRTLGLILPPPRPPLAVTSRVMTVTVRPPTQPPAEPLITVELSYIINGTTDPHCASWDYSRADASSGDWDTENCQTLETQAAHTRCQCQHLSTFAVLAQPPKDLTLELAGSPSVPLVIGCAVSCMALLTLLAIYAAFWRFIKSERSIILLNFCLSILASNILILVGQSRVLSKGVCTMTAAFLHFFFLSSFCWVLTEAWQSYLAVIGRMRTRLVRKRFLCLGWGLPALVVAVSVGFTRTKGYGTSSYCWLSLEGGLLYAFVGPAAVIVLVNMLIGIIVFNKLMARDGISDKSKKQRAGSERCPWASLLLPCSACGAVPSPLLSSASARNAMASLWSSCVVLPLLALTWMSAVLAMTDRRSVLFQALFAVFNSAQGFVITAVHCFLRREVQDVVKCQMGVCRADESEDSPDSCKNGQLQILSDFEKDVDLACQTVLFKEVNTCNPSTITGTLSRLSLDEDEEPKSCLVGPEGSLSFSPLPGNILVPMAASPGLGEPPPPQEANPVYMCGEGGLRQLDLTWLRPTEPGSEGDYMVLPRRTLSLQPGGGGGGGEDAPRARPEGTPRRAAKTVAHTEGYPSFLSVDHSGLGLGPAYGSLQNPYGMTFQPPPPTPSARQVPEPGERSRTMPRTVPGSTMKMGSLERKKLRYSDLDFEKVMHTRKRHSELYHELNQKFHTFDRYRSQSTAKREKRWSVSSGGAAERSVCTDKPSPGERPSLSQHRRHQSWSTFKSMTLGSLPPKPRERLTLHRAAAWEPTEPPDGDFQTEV
Procedure: as §1, §2, §3

| Compound | Change in intracellular Ca2+ concentration (fluorescence intensity) [1] | Change in intracellular Ca2+ concentration after addition of CCK-8S [2] |
| --- | --- | --- |
| CNc1ccc2oc(C[C@H]3O[C@@]4(CC[C@H]3C)O[C@H]([C@H](C)C(=O)c3ccc[nH]3)[C@H](C)C[C@H]4C)nc2c1C(=O)O [A23187] | increased | – |
| cholecystokinin octapeptide sulfated form [CCK-8S] | – | increase |
